Data taken from patent EP3351262A1, “CURAGLUTIDE FOR IN TREATMENT OF PREDIABETES, DIABETES, OBESITY AND METABOLIC DISEASES ASSOCIATED THERETO” (Istanbul Universitesi Rektorlugu, priority 2016, dated 2018).
Where “and” joins values, the source holds several entries; their conditions need not be identical. Equal entries are not always repeated.

What was measured:
Format in all cases: cell-based, rat
LC3-II = assay: Western blotting of autophagy marker LC3-II in cell lysates; settings: for amount of intracellular LC3-II: control 0.44±0.00; for LC3-II amounts: INS-1 cells
Method: (§1) Trypsin is applied to 75 cm^2 flask containing INS-1 […] beta cells and it is centrifuged in 1500 rpm for 15 minutes. According to the density of pellet formed after centrifuge, it is centrifuged at 4 °C in 1500 rpm for 5 minutes by providing the washing with pipetting with PBS and transferring into 2 ml eppendorf. The supernatant was removed, lysis buffer was added according to the density of pellet and pipetting is performed carefully. It was left for 30 minutes on the ice by vortexing in every 10 minutes. Then the cells were allowed to lysis by ultrasonication for 10 seconds for 5 times, keeping on ice for 10 seconds and they were centrifuged at 4 °C in 13000 rpm for 10 minutes. The supernatant occurred was taken to 0,2 ml eppendorf tubes, and they were taken to -86 °C temperature. These operations were repeated for 3 times for each of the control and experiment groups.
(§2) Bradford method was used in order to determine the protein content. First, a standard curve was formed by using BSA (bovine serum albumin) having a concentration of 1.46 mg/ml. This curve was prepared as following: Bradford solution was added into 80 µg/ml, 40 µg/ml, 20 µg/ml, 10 µg/ml BSA, their absorbance was measured in 595 nm, it was diluted in a way that the lysates are 1/100 and 160 µl was taken, their absorbance in the same wavelengths was determined. After absorbance/concentration graph of the standards was obtained, the concentrations of the samples whose concentrations are […] were determined by using the slope equation of this graph.
(§3) Protein bands separated by electrophoresis in gel were transferred from the gel into nitrocellulose membrane. After membrane transferring operation, transfer efficiency was controlled for 15 minutes by using Ponceau S painting solution.
(§4) The membrane wherein the proteins were transferred, was incubated at room temperature for 1 hour with blocking solution prepared with skimmed milk powder. The membranes were incubated with primary antibodies suitable diluting ratios (Table 1) for 1 night at +4 °C, following the blocking operation. Following this operation, washed membranes were treated with peroxidase marked goat anti-rabbit secondary IgGs (Santa Cruz, CA, USA, sc-2004) at room temperature for 1 hour. Following the treatment with secondary antibodies of membranes, they were washed with washing solution and shaken with pure water. Then, the specific protein bands were monitored by KodakGL1500 gel monitoring system, by chemiluminescence method using Western Blotting Luminol Reagent (Santa Cruz, CA, USA, sc-2048) chemiluminescence substrate. Their densitometric analysis were performed by "Kodak Molecular Imaging Systems" software. The statistical analysis between the bands were performed by normalizing the band densities of the protein samples whose densitometric analysis were performed, to the density of β-actin protein. Table 1: The primary antibodies used in Western blotting method, the dilution ratios and periods thereof
In order to determine the autophagic dose, LC3-II protein amounts which are the autophagic markers were determined by western blotting method by obtaining lysate from the cells on which 0.75, 1, 1.75, 2, 2.5 and 3 mM palmitic acid was applied. The graph obtained from western blotting bands and the calculation performed as a result of the analysis of these bands is shown in Figure 2.
Intracellular LC3 protein amount was observed by western blotting in order to examine the effect of curaglutide on autophagy stimulated by 1,75 mM palmitic acid in INS-1 beta cells.

p53 = assay: Western blotting of apoptotic protein p53 in cell lysates; settings: for amount of intracellular p53: control 1.06±0.00; for p-53 amounts: INS-1 cells, normalized to β-actin
Method: as §1, §2, §3, §4
(§5) In order to determine the apoptosis dose, p 53, cytochrome-c and active caspase-3 protein amounts were determined by western blotting method by obtaining lysate from the cells in which 0.75, 1,1.75,2,2.5 and 3 mM palmitic acid were applied. The graph obtained from western blotting bands and the calculation performed as a result of the analysis of these bands is shown in Figure 3.
(§6) The amount of intracellular proteins such as p53, cytochrome-c and active caspase-3 were observed by western blotting in order to examine the effect of curaglutide on apoptosis stimulated by 2 mM palmitic acid in INS-1 beta cells.

cytochrome-c = assay: Western blotting of apoptotic protein cytochrome-c in cell lysates; settings: for amount of cytochrome-c: control 1.02±0.02; for cytochrome-c amounts: INS-1 cells, normalized to β-actin
Method: as §1, §2, §3, §4, §5, §6

INS-1 beta cells = assay: ROS measurement with H2DCFDA; settings: INS-1 cells, 3rd hour, control 100%
Method: When this compound oxidizes by oxidants or free radicals, fluorescent dichlorofluorescein (DCF) will occur.
INS-beta cells were cultured into the plates covered with black with 96 wells in a way such that there would be 50 000 cells in 100 µl. After the growth of the cells, the experiment group (only palmitic acid given) and the groups wherein curaglutide as both protective and therapeutical against palmitic acid was given were removed at the end of the experiment, and each of the wells were washed with PBS. Then 100 µl PBS was added to every well. Then, start of experiment was accepted as 0th hour by adding 10 mM DCFA and the measurements were taken for 3 hours in every 30 minutes, including 0th hour. The absorbance values of each group and the absorbance values in 3rd hour was calculated by assuming the value of the control group as 100%.
ROS measurement was performed by applying H 2 DCFDA occurred as a result of chemical […] of fluorescein which is used as a marker for reactive oxygen derivatives (ROS) to INS-1 beta cells wherein palmitic acid was applied in different doses, and the results are shown in Figure 5.
ROS measurement was performed by applying 10 nM curaglutide as protector and therapeutical to INS-1 beta cells wherein palmitic acid was applied in different doses, and the results are shown in Figure 11.

[1] = 10 nM curaglutide as curative agent, 2 mM palmitic acid (apoptotic dose)
[2] = 10 nM curaglutide as protector against 2 mM palmitic acid (apoptotic dose)

Structure (SMILES): CC[C@H](C)[C@H](NC(=O)[C@H](Cc1ccccc1)NC(=O)[C@H](CCC(=O)O)NC(=O)[C@H](CCCCN)NC(=O)[C@H](C)NC(=O)[C@H](C)NC(=O)[C@H](CCC(N)=O)NC(=O)CNC(=O)[C@H](CCC(=O)O)NC(=O)[C@H](CC(C)C)NC(=O)[C@H](Cc1ccc(O)cc1)NC(=O)[C@H](CO)NC(=O)[C@H](CO)NC(=O)[C@@H](NC(=O)[C@H](CC(=O)O)NC(=O)[C@H](CO)NC(=O)[C@@H](NC(=O)[C@H](Cc1ccccc1)NC(=O)[C@@H](NC(=O)CNC(=O)[C@H](CCC(=O)O)NC(=O)[C@H](C)NC(=O)[C@H](Cc1c[nH]cn1)NC(C)=O)[C@@H](C)O)[C@@H](C)O)C(C)C)C(=O)N[C@@H](C)C(=O)N[C@@H](Cc1c[nH]c2ccccc12)C(=O)N[C@@H](CC(C)C)C(=O)N[C@H](C(=O)N[C@@H](CCCCN)C(N)=O)C(C)C [curaglutide]
- amount of intracellular LC3-II (LC3-II; 10 nM curaglutide as curative agent, 1.75 mM palmitic acid (autophagic dose)): 0.32±0.00
- amount of intracellular LC3-II (LC3-II; 10 nM curaglutide as protector, 1.75 mM palmitic acid (autophagic dose)): 0.29±0.00
- amount of intracellular p53 (p53; [1]): 0.65±0.13
- amount of intracellular p53 (p53; [2]): 0.54±0.24
- amount of cytochrome-c (cytochrome-c; [1]): 0.67±0.07
- amount of cytochrome-c (cytochrome-c; [2]): 0.80±0.10

Structure (SMILES): CCCCCCCCCCCCCCCC(=O)O [palmitic acid]
- LC3-II amounts (LC3-II; 0.75 mM palmitic acid, band density normalized to β-actin, control 0.50±0.01): 0.60±0.00
- LC3-II amounts (LC3-II; 1 mM palmitic acid, band density normalized to β-actin, control 0.50±0.01): 0.60±0.00
- LC3-II amounts (LC3-II; 1.75 mM palmitic acid (autophagic dose), normalized to β-actin, control 0.50±0.01 / 0.44±0.00): 0.70±0.03 and 0.70±0.01
- LC3-II amounts (LC3-II; 2 mM palmitic acid, band density normalized to β-actin, control 0.50±0.01): 0.52±0.02
- LC3-II amounts (LC3-II; 2.5 mM palmitic acid, band density normalized to β-actin, control 0.50±0.01): 0.50±0.00
- LC3-II amounts (LC3-II; 3 mM palmitic acid, band density normalized to β-actin, control 0.50±0.01): 0.49±0.01
- p-53 amounts (p53; 0.75 mM palmitic acid, control 1.04±0.00): 1.1±0.00
- p-53 amounts (p53; 1 mM palmitic acid, control 1.04±0.00): 1.14±0.00
- p-53 amounts (p53; 1.75 mM palmitic acid, control 1.04±0.00): 1.16±0.05
- p-53 amounts (p53; 2 mM palmitic acid (apoptotic dose), control 1.04±0.00 / 1.06±0.00): 1.3±0.02 and 1.31±0.02
- p-53 amounts (p53; 2.5 mM palmitic acid, control 1.04±0.00): 1.14±0.06
- p-53 amounts (p53; 3 mM palmitic acid, control 1.04±0.00): 1.03±0.00
- cytochrome-c amounts (cytochrome-c; 0.75 mM palmitic acid, control 1.05±0.02): 1.07±0.02
- cytochrome-c amounts (cytochrome-c; 1 mM palmitic acid, control 1.05±0.02): 1.06±0.01
- cytochrome-c amounts (cytochrome-c; 1.75 mM palmitic acid, control 1.05±0.02): 1.07±0.05
- cytochrome-c amounts (cytochrome-c; 2 mM palmitic acid (apoptotic dose), control 1.05±0.02 / 1.02±0.02): 1.23±0.00 and 1.22±0.00
- cytochrome-c amounts (cytochrome-c; 2.5 mM palmitic acid, control 1.05±0.02): 1.11±0.04
- cytochrome-c amounts (cytochrome-c; 3 mM palmitic acid, control 1.05±0.02): 1.09±0.02
- ROS measurement percentages (INS-1 beta cells; 0.5 mM palmitic acid): 116±6.01%
- ROS measurement percentages (INS-1 beta cells; 1 mM palmitic acid): 117±2.5%
- ROS measurement percentages (INS-1 beta cells; 1.5 mM palmitic acid): 119.7±7.0%
- ROS measurement percentages (INS-1 beta cells; 1.75 mM palmitic acid): 136.5±5.6%
- ROS measurement percentages (INS-1 beta cells; 2 mM palmitic acid): 145.8±3.8%
- ROS measurement percentages (INS-1 beta cells; 2.5 mM palmitic acid): 172.1±6.1%
- ROS measurement percentages (INS-1 beta cells; 3 mM palmitic acid): 174.8±9.9%
- ROS measurement percentages (INS-1 beta cells; 3.5 mM palmitic acid): 241.6±5.5%
- ROS measurement percentages (INS-1 beta cells; 4 mM palmitic acid): 262.2±9.9%
